Assays:
[1] = test system: diet-induced obese C57BL/6 mice; experiment: Insulin tolerance test in diet-induced obese mice; assay type: in vivo, mouse; details: 5 mg/kg i.p. twice a day
Description: C57BL/6J mice were fed a high-fat diet for 10 weeks before Compound 7 or vehicle was injected intraperitoneally twice a day at a dose of 5 mg/kg body weight. FIG. 5A depicts insulin tolerance tests (ITT) performed on Day 7 by injecting intraperitoneally a bolus of 0.75 unit/kg of human regular insulin. […] FIG. 5C depicts glucose tolerance tests (GTT) carried out on Day 9 after a bolus of 1 g/kg glucose was injected intraperitoneally. […] FIG. 5E depicts pyruvate tolerance tests (PTT) performed on Day 12 after an injection of 2 g/kg pyruvate solution. […] At the end of 2-week injections of Compound 7, animals were fasted overnight and stimulated with a bolus of 1 unit of human regular insulin or saline via vena cava. Three minutes later, liver, skeletal muscle, and white adipose tissue (WAT) were collected sequentially for insulin signaling analysis. FIG. 5G depicts the phosphorylation of Tyr1162/1163 in insulin receptor (IR) and Ser473 phosphorylation in Akt kinases and the corresponding proteins in the liver, skeletal muscle, and white adipose tissue (WAT) were analyzed by immunoblots.
To this end, we intraperitoneally injected Compound 7 into diet-induced obese C57BL/6 mice at a dose of 5 mg/kg twice a day. […] After 7 days of injections, we performed insulin tolerance tests to measure insulin sensitivity in vehicle and Compound 7 treated mice.

CD45 = CD45 (Homo sapiens (Human), UniProt P08575); experiment: pNPP hydrolysis enzyme assay, CD45; assay type: biochemical
Chain of CD45 (P08575 26-1306, species assumed): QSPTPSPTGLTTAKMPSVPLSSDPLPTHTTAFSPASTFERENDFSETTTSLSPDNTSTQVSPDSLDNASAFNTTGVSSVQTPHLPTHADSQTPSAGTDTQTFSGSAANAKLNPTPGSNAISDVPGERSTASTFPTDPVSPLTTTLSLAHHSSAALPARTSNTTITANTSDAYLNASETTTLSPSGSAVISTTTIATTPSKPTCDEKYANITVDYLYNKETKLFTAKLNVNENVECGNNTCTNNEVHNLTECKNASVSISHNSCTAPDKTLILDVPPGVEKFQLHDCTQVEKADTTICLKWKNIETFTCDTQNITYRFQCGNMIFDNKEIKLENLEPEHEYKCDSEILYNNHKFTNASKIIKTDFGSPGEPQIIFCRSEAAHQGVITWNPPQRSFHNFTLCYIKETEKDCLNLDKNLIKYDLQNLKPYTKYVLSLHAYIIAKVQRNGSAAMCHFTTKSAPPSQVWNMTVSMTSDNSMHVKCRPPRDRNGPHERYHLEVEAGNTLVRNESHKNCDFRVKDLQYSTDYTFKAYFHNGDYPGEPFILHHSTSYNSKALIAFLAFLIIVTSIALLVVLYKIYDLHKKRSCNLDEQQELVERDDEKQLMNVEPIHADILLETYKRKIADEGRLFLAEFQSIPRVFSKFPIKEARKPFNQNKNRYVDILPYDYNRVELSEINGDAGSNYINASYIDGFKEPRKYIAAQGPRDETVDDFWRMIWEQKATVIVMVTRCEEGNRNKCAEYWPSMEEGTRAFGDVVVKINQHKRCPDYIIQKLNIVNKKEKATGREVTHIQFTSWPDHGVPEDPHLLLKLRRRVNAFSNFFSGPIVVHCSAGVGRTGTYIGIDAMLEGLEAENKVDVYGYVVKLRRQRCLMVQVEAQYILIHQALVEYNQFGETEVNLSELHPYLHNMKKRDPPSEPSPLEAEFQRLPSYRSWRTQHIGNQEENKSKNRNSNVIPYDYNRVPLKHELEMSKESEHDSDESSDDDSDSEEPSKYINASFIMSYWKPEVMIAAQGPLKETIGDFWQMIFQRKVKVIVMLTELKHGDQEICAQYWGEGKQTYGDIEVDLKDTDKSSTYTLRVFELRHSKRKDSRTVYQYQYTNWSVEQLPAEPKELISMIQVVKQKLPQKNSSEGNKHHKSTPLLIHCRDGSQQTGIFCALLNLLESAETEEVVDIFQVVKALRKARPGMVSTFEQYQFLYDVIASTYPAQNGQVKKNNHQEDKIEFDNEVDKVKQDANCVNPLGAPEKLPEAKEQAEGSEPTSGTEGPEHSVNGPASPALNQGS
Description: (§1) Enzyme kinetic assay. PTP activity was assayed using p-nitrophenyl phosphate (pNPP) as a substrate in 3,3-dimethylglutarate buffer (50 mM 3,3-dimethylglutarate, pH 7.0, 1 mM EDTA, 150 mM NaCl, 2 mM DTT, 0.1 mg/mL BSA) at 25° C. The assays were performed in 96-well plates. Normally, to determine the IC50 values, the reaction was initiated by the addition of enzyme (final concentration at 10 nM) to a reaction mixture (0.2 mL) containing 2 mM (Km for the substrate) pNPP with various concentrations of inhibitors. The reaction rate was measured using a SpectraMax Plus 384 Microplate Spectrophotometer (Molecular Devices). To determine the mode of inhibition, the reactions were initiated by the addition of PTP-MEG2 to the reaction mixtures (0.2 mL) containing various concentrations of pNPP with different concentrations of the inhibitor 7. Data were fitted using SigmaPlot Enzyme Kinetics Module (Systat Software, Inc.).

PTPμ = PTPμ (Homo sapiens (Human), UniProt P28827); experiment: pNPP hydrolysis enzyme assay, PTPμ; assay type: biochemical
Chain of PTPμ (P28827 21-1452): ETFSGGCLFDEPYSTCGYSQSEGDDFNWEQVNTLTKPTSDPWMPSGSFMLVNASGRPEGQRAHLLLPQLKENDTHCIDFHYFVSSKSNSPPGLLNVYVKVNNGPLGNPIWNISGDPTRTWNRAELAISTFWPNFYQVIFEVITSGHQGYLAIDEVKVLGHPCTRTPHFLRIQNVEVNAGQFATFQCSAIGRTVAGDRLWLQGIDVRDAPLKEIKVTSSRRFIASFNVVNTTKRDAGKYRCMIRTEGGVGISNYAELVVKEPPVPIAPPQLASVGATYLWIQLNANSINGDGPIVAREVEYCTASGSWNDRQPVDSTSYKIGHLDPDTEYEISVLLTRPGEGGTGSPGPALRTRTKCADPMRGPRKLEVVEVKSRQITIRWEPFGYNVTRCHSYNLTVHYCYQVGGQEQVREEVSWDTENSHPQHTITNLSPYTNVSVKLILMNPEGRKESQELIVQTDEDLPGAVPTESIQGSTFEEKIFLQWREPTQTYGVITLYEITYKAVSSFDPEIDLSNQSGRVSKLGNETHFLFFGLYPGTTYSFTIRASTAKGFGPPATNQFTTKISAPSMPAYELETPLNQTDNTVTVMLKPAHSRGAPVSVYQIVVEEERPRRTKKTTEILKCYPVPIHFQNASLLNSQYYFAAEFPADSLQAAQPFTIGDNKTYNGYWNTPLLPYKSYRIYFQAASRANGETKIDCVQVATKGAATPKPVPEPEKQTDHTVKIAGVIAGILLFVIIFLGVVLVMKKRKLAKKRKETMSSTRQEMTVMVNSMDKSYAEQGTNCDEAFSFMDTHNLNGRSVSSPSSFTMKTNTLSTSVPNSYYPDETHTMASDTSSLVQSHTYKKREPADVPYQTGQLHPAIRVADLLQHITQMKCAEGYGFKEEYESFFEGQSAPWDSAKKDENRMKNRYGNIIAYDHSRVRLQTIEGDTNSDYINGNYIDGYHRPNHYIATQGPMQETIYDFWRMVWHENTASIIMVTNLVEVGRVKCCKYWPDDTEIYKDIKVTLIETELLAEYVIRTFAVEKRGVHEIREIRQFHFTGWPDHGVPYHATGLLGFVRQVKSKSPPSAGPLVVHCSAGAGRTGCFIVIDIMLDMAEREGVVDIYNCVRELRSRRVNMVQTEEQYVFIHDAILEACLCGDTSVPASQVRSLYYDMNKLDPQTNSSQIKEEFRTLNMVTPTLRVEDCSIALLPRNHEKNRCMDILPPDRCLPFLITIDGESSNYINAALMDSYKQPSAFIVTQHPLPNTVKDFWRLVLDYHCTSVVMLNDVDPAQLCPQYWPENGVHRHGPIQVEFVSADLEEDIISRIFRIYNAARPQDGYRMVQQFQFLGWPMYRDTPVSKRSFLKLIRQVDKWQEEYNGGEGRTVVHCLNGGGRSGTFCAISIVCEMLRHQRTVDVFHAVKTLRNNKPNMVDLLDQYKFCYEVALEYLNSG
Description: as §1

[2] = test system: insulin signaling in mouse primary hepatocytes; experiment: Insulin signaling in mouse primary hepatocytes (Western blot); assay type: cell-based; details: for increase of phosphorylated IR (Tyr1162/1163): 1 hour pretreatment, 5 nM insulin 5 minutes, vs DMSO
Description: FIGS. 4A-B depict the ability of PTP-MEG2 inhibitor Compound 7 to sensitize insulin signaling in primary hepatocytes. […] Mouse primary hepatocytes were cultured in 0.5% FBS DMEM medium overnight. Prior to insulin stimulation, the cells were pretreated with Compound 7 or 8 for 1 hour. Then the cells were stimulated with 5 nM insulin for 5 minutes. Insulin signaling was analyzed by Western Blots using phospho-specific antibodies. […] Mouse primary hepatocytes were cultured in DMEM medium plus 0.5% FBS for overnight in the presence or absence of insulin or Compound 7 or 8. Then the cells were harvested for mRNA isolation and gene expression analysis using real-time PCR. The mRNA levels of Foxo1 target genes were normalized with Ppia as an internal control. Data are presented as mean±SEM. *, P<0.05 for Compound 7 vs. DMSO; #, P<0.05 for INS+Compound 7 vs. INS alone.
FIG. 10 depicts the time course of pIR (Tyr 1162/63) level. Primary hepatocyte cells were starved overnight. Prior to insulin stimulation, the cells were preincubated with either vehicle DMSO, Compound 7, or Compound 8 for 1 hour. Then the cells were stimulated with 5 nM Insulin for 0, 5, 30, 60 min. Cell lysates were harvested for Western Blot, using anti-pIR (Tyr 1162/63) antibodies.
Mouse primary hepatocytes were isolated and cultured in DMEM medium with 0.5% FBS for 12 hours, and then were incubated with either vehicle DMSO, Compound 7 (100 nM), or Compound 8 (100 nM) for one hour. Phosphorylated IR, Gsk3β, and Foxo1 and the corresponding total proteins were analyzed by Western blots.
PTP-MEG2 inhibitor Compound 7 augments insulin signaling in cells. Given the excellent potency and selectivity of Compound 7 toward PTP-MEG2, we proceeded to evaluate its effect on PTP-MEG2-dependent signaling inside the cell. To assess the effects of Compound 7 on insulin signaling, we pretreated mouse primary hepatocytes with Compound 7 for 1 hour and then stimulated the cells with 5 nM insulin for 5 minutes. […] Remarkably, the phosphorylated form of IR was increased 50% and 100% at concentrations of 50 nM (1.5×Ki) and 100 nM of Compound 7, respectively (FIG. 4A and FIG. 8). […] Phosphorylation of Akt (Ser473) was increased by 3.1 and 4.5 fold; phosphorylation of GSK-3β (Ser9) was increased by 1.5 and 2.0 fold; and phosphorylation of Foxo1 (Ser253) was increased by 2.1 and 2.9 fold at 100 and 200 nM concentrations of Compound 7, respectively.
Western blot analysis. Cells were homogenized in the lysis buffer (50 mM Hepes, pH 7.5, 150 mM NaCl, 10% Glycerol, 1% Triton X-100, 1.5 mM MgCl2, 1 mM EGTA, 10 μM Sodium Pyrophosphate, 100 mM sodium fluoride and freshly added 100 μM sodium vanadate, 1 mM PMSF, 10 μg/ml Aprotinin, and 10 μg/mL Leupeptin). Protein extracts were resolved on an SDS-PAGE gel and transferred to nitrocellulose membrane. Proteins were probed using the following antibodies: IR(pY1162/63), IR (Santa Cruz Biotechnology), Akt(pS473), Aid, GSK3β(pS9), GSK3β, Foxo1(pS256), Foxo1, Erk1/2(pT202/Y204), Erk1/2 (Cell Signaling Technology). Protein signals were detected by incubation with HRP-conjugated secondary antibodies, followed by ECL detection reagent (Pierce). Western blots were scanned and quantified using the Quantity One software (Bio-Rad).

## COc1cc(CC(=O)NCC(NC(=O)C(CCCNC(=O)c2cccc(I)c2)NC(=O)C(Cc2ccc(C(F)(F)P(=O)(O)O)cc2)NC(=O)c2ccc(C)c(Br)c2)C(N)=O)ccc1O (stereo not drawn) [Compound 7]
[1]; Day 7, at 15 and 60 minutes after 0.75 unit insulin
  insulin sensitivity in insulin tolerance test: significantly improved insulin sensitivity
[1]; Day 7, vs vehicle
  improvement in insulin tolerance (AUC): 14%
CD45
  IC50: > 10000 nM
PTPμ
  IC50: > 10000 nM
[2]; 50 nM compound
  increase of phosphorylated IR (Tyr1162/1163): 50%
[2]; 100 nM compound, 5 nM insulin
  increase of Akt (Ser473) phosphorylation: 3.1 fold
  increase of Foxo1 (Ser253) phosphorylation: 2.1 fold
  increase of GSK-3β (Ser9) phosphorylation: 1.5 fold
[2]; 100 nM compound
  increase of phosphorylated IR (Tyr1162/1163): 100%
[2]; 100 nM, one hour, no insulin
  insulin signaling pathway under basal conditions: enhanced
[2]; 200 nM compound, 5 nM insulin
  increase of Akt (Ser473) phosphorylation: 4.5 fold
  increase of Foxo1 (Ser253) phosphorylation: 2.9 fold
  increase of GSK-3β (Ser9) phosphorylation: 2.0 fold
[2]; insulin-stimulated hepatocytes
  Erk1/2 activation: strongly enhanced
[2]; no insulin, 100 nM, 1 hour
  increase of basal phosphorylation of Foxo1: 2.2 fold
  increase of basal phosphorylation of GSK-3β: 2.0 fold
  increase of basal phosphorylation of IR: 2.1 fold
[2]; time course 0, 5, 30, 60 min, 5 nM insulin
  duration of potentiation of insulin stimulated IR phosphorylation: at least 1 hour

Source: patent US9340574B2, “Inhibitors of protein tyrosine phosphatases” (Indiana University Research and Technology Corporation, priority 2012, dated 2016)
